# Data from the supplement of paper PMC10307832.
# Experiments:
# Assay in all cases: relative viability (nuclei count vs DMSO), 5 days (fraction); higher = more cells survive
# [1] = compound: CN1CCC(CNc2ccc3ncc(-c4cccc(OC(F)(F)F)c4)n3n2)CC1 [SGI-1776] + COc1cccc2cc(-c3nc([C@H]4CC[C@H](C(=O)O)CC4)n4ncnc(N)c34)[nH]c12 [OSI-027] (partner 0.5 µM)
# In short: (§1)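 Each reported value is a median over duplicate plates. It expresses relative viability: treated-well nuclei count divided by vehicle-well nuclei count. Lung cancer cell lines in 1536-well plates were dosed by pin tool a day after seeding, alone with one drug or with a fixed anchor-drug dose plus five library-drug doses (not always all listed) in √10 steps, and nuclei were counted after 5 days.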
# [2] = compound: CN1CCC(CNc2ccc3ncc(-c4cccc(OC(F)(F)F)c4)n3n2)CC1 [SGI-1776] + Nc1nc2[nH]cc(CCc3ccc(C(=O)N[C@@H](CCC(=O)O)C(=O)O)cc3)c2c(=O)[nH]1 [Pemetrexed] (partner 0.2 µM)
# In short: as §1
# [3] = compound: Nc1ccccc1NC(=O)c1ccc(CNC(=O)OCc2cccnc2)cc1 [Entinostat] + COc1cc2c(Oc3ccc(NC(=O)C4(C(=O)Nc5ccc(F)cc5)CC4)cc3F)ccnc2cc1OCCCN1CCOCC1 [Foretinib] (partner 0.25 µM)
# In short: as §1
# [4] = compound: Nc1ccccc1NC(=O)c1ccc(CNC(=O)OCc2cccnc2)cc1 [Entinostat] + N=C(N)NC(=N)NCCc1ccccc1 [Phenformin] (partner 250 µM)
# In short: as §1
cell line,measurement,setting,value
UMC-11,relative viability,[1]; first compound 0.08 µM,0.493
same,relative viability,[1]; first compound 0.8 µM,0.466
same,relative viability,[1]; first compound 2.53 µM,0.396
same,relative viability,[1]; first compound 8 µM,0.278
same,relative viability,[2]; first compound 0.08 µM,0.828
same,relative viability,[2]; first compound 0.8 µM,0.864
same,relative viability,[2]; first compound 2.53 µM,0.699
same,relative viability,[2]; first compound 8 µM,0.558
same,relative viability,[3]; first compound 0.02 µM,1.22
same,relative viability,[3]; first compound 0.06325 µM,1.08
same,relative viability,[3]; first compound 0.2 µM,0.834
same,relative viability,[3]; first compound 0.6325 µM,0.273
same,relative viability,[3]; first compound 2 µM,0.201
same,relative viability,[4]; first compound 0.02 µM,0.307
same,relative viability,[4]; first compound 0.06325 µM,0.334
same,relative viability,[4]; first compound 0.2 µM,0.347
same,relative viability,[4]; first compound 0.6325 µM,0.21
same,relative viability,[4]; first compound 2 µM,0.188
